Experimental data from US20260232658A1, “AZETIDINYL BENZOXAZOLE COMPOUNDS AND THEIR USE AS MER AND AXL INHIBITORS” (DONG-A ST CO., LTD., priority 2022, published 2026).
pIC50: −log10 of the molar value.

Key:
human MER (528-end) = molecular target: T1, human MER (528-end) (Homo sapiens, UniProt Q12866); assay: HTRF kinase activity biochemical assay, MER; details: recombinant kinase, 10 uM ATP, 30 minutes pre-incubation; read-out: HTRF MERTK IC50;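 also: phosphorylation of a biotin-tagged tyrosine kinase substrate detected by Eu3+-cryptate antibody and streptavidin-XL665 time-resolved fluorescence, read after 1 h at room temperature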
T1 construct: human MER (528-end); purchased Carnabio, Japan
T1 sequence (Q12866 528-999 limits assumed): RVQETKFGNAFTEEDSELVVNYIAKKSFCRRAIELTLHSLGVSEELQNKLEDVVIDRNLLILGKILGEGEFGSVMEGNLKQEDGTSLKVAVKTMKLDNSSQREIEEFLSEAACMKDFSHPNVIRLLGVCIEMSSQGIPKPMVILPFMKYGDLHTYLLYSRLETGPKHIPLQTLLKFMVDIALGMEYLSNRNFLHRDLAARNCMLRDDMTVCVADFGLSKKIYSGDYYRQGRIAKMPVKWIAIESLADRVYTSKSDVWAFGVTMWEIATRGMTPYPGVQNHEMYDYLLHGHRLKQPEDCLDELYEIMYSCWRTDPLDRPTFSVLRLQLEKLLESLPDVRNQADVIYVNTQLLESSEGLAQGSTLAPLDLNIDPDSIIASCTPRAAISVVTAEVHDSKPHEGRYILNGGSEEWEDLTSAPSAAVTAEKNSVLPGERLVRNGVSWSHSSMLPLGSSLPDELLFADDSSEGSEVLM

human AXL (473-end) = molecular target: T2, human AXL (473-end) (Homo sapiens, UniProt P30530); assay: HTRF kinase activity biochemical assay, AXL; details: recombinant kinase, 10 uM ATP, 30 minutes pre-incubation; read-out: HTRF AXL IC50;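 also: phosphorylation of a biotinylated tyrosine kinase substrate detected via Eu3+-cryptate anti-TK antibody and streptavidin-XL665, fluorescence read after a 1 h incubation at room temperature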
T2 construct: human AXL (473-end); purchased SignalChem, Canada
T2 sequence (P30530 473-894 limits assumed): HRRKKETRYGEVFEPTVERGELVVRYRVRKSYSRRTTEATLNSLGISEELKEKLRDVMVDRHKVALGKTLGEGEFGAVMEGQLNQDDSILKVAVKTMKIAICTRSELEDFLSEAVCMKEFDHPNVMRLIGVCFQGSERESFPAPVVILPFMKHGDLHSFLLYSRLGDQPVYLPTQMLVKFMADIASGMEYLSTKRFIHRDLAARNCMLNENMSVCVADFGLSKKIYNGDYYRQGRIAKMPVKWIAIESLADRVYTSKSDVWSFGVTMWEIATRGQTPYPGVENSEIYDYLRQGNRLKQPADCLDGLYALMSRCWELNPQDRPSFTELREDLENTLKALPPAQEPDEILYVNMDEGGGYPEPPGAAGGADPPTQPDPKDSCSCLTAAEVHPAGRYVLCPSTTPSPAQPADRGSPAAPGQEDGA

TYRO3 (455-end) = molecular target: T3, TYRO3 (455-end) (Homo sapiens, UniProt Q06418); assay: HTRF kinase activity biochemical assay, TYRO3; details: recombinant kinase, 10 uM ATP, 30 minutes pre-incubation; read-out: HTRF TYRO IC50;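 also: biotinylated tyrosine kinase substrate phosphorylation detected via streptavidin-XL665 and Eu3+-cryptate anti-phospho antibody time-resolved fluorescence, read after 1 h detection at room temperature, 384-well format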
T3 construct: TYRO3 (455-end); purchased SignalChem, Canada
T3 sequence (Q06418 455-890 limits assumed): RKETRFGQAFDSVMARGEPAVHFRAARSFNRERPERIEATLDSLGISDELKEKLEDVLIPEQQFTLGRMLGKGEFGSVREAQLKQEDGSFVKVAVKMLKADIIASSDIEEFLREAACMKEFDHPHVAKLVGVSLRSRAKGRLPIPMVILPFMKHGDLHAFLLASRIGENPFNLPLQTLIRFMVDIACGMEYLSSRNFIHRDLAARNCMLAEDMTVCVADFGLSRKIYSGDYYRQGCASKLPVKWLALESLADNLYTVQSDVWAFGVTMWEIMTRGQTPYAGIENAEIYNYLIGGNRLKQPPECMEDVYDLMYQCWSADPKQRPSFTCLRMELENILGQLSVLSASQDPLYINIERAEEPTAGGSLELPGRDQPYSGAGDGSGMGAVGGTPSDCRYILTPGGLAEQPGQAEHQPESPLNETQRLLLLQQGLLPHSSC

pIC50 (human MER (528-end)) | pIC50 (human AXL (473-end)) | pIC50 (TYRO3 (455-end)) | Structure (SMILES)
8.70 | 8.52 | 6.89 | Cn1cc(Nc2ncc(C3CN(c4nc5ccc(OCC#N)cc5o4)C3)nc2C(N)=O)cn1 [Example 24, 6-{1-[6-(cyanomethoxy)-1,3-benzoxazol-2-yl]azetidin-3-yl}-3-[(1-methyl-1H-pyrazol-4-yl)amino]pyrazine-2-carboxamide]
8.15 | 8.00 | 5.96 | Cn1cc(Nc2ncc(C3CN(c4nc5ccc(CC(CO)CO)cc5o4)C3)nc2C(N)=O)cn1 [Example 25, 6-(1-{6-[3-hydroxy-2-(hydroxymethyl)propyl]-1,3-benzoxazol-2-yl}azetidin-3-yl)-3-[(1-methyl-1H-pyrazol-4-yl)amino]pyrazine-2-carboxamide]
> 9.00 | 8.52 | 7.03 | CCOC(=O)COc1ccc2nc(N3CC(c4cnc(Nc5cnn(C)c5)c(C(N)=O)n4)C3)oc2c1 [Example 26, ethyl {[2-(3-{6-carbamoyl-5-[(1-methyl-1H-pyrazol-4-yl)amino]pyrazin-2-yl}azetidin-1-yl)-1,3-benzoxazol-6-yl]oxy}acetate]
9.00 | 8.52 | 7.09 | NC(=O)c1nc(C2CN(c3nc4ccc(F)cc4o3)C2)cnc1Nc1cnn(C2CCOCC2)c1 [Example 27, 6-[1-(6-fluoro-1,3-benzoxazol-2-yl)azetidin-3-yl]-3-{[1-(oxan-4-yl)-1H-pyrazol-4-yl]amino}pyrazine-2-carboxamide]
8.30 | 8.00 | 6.47 | COCCn1cc(Nc2ncc(C3CN(c4nc5ccccc5o4)C3)nc2C(N)=O)cn1 [Example 29, 6-[1-(1,3-benzoxazol-2-yl)azetidin-3-yl]-3-{[1-(2-methoxyethyl)-1H-pyrazol-4-yl]amino}pyrazine-2-carboxamide]
9.00 | 8.52 | 6.72 | Cn1cc(Nc2ncc(C3CN(c4nc5ccc(CCCO)cc5o4)C3)nc2C(N)=O)cn1 [Example 32, 6-{1-[6-(3-hydroxypropyl)-1,3-benzoxazol-2-yl]azetidin-3-yl}-3-[(1-methyl-1H-pyrazol-4-yl)amino]pyrazine-2-carboxamide]
> 9.00 | 8.70 | 6.85 | Cn1cc(Nc2ncc(C3CN(c4nc5ccc(/C=C/CO)cc5o4)C3)nc2C(N)=O)cn1 [Example 32A, 6-(1-{6-[(1E)-3-hydroxyprop-1-en-1-yl]-1,3-benzoxazol-2-yl}azetidin-3-yl)-3-[(1-methyl-1H-pyrazol-4-yl)amino]pyrazine-2-carboxamide]
9.00 | 8.70 | 6.89 | COCCCc1ccc2nc(N3CC(c4cnc(Nc5cnn(C)c5)c(C(N)=O)n4)C3)oc2c1 [Example 33, 6-{1-[6-(3-methoxypropyl)-1,3-benzoxazol-2-yl]azetidin-3-yl}-3-[(1-methyl-1H-pyrazol-4-yl)amino]pyrazine-2-carboxamide]
8.10 | 7.72 | 6.21 | CN(C)C(=O)Cn1cc(Nc2ncc(C3CN(c4nc5ccccc5o4)C3)nc2C(N)=O)cn1 [Example 34, 6-[1-(1,3-benzoxazol-2-yl)azetidin-3-yl]-3-({1-[2-(dimethylamino)-2-oxoethyl]-1H-pyrazol-4-yl}amino)pyrazine-2-carboxamide]
9.00 | 8.05 | 6.77 | NC(=O)c1nc(C2CN(c3nc4ccc(F)cc4o3)C2)cnc1Nc1cnn(CC(O)CO)c1 (stereo not drawn) [Example 36, 3-{[1-(2,3-dihydroxypropyl)-1H-pyrazol-4-yl]amino}-6-[1-(6-fluoro-1,3-benzoxazol-2-yl)azetidin-3-yl]pyrazine-2-carboxamide]
9.00 | 8.52 | < 5.00 | NC(=O)c1nc(C2CN(c3nc4ccc(F)cc4o3)C2)cnc1Nc1cn[nH]c1 [Example 36C, 6-[1-(6-fluoro-1,3-benzoxazol-2-yl)azetidin-3-yl]-3-[(1H-pyrazol-4-yl)amino]pyrazine-2-carboxamide]
8.52 | 8.00 | 6.37 | CC1(C)OCC(Cn2cc(Nc3ncc(C4CN(c5nc6ccc(F)cc6o5)C4)nc3C(N)=O)cn2)O1 (stereo not drawn) [Example 36D, 3-({1-[(2,2-dimethyl-1,3-dioxolan-4-yl)methyl]-1H-pyrazol-4-yl}amino)-6-[1-(6-fluoro-1,3-benzoxazol-2-yl)azetidin-3-yl]pyrazine-2-carboxamide]
8.00 | 7.54 | 5.67 | Cn1cc(Nc2ncc(C3CN(c4nc5ccc(OCC(N)=O)cc5o4)C3)nc2C(N)=O)cn1 [Example 37, 6-{1-[6-(2-amino-2-oxoethoxy)-1,3-benzoxazol-2-yl]azetidin-3-yl}-3-[(1-methyl-1H-pyrazol-4-yl)amino]pyrazine-2-carboxamide]
8.70 | 8.10 | 6.34 | Cn1cc(Nc2ncc(C3CN(c4nc5ccc(OCCO)cc5o4)C3)nc2C(N)=O)cn1 [Example 40, 6-{1-[6-(2-hydroxyethoxy)-1,3-benzoxazol-2-yl]azetidin-3-yl}-3-[(1-methyl-1H-pyrazol-4-yl)amino]pyrazine-2-carboxamide]
> 9.00 | 8.70 | 6.68 | Cn1cc(Nc2ncc(C3CN(c4nc5ccc(OCC6COC6)cc5o4)C3)nc2C(N)=O)cn1 [Example 41, 3-[(1-methyl-1H-pyrazol-4-yl)amino]-6-(1-{6-[(oxetan-3-yl)methoxy]-1,3-benzoxazol-2-yl}azetidin-3-yl)pyrazine-2-carboxamide]
> 9.00 | 8.70 | 7.19 | Cn1cc(Nc2ncc(C3CN(c4nc5ccc(OCC6CC(O)C6)cc5o4)C3)nc2C(N)=O)cn1 (stereo not drawn) [Example 42, 6-(1-{6-[(3-hydroxycyclobutyl)methoxy]-1,3-benzoxazol-2-yl}azetidin-3-yl)-3-[(1-methyl-1H-pyrazol-4-yl)amino]pyrazine-2-carboxamide]
8.05 | 7.60 | 5.67 | Cn1cc(Nc2ncc(C3CN(c4nc5ccc(OCC(O)CO)cc5o4)C3)nc2C(N)=O)cn1 (stereo not drawn) [Example 43, 6-{1-[6-(2,3-dihydroxypropoxy)-1,3-benzoxazol-2-yl]azetidin-3-yl}-3-[(1-methyl-1H-pyrazol-4-yl)amino]pyrazine-2-carboxamide]
> 9.00 | 8.70 | 6.96 | Cn1cc(Nc2ncc(C3CN(c4nc5ccc(OCC6(O)CCC6)cc5o4)C3)nc2C(N)=O)cn1 [Example 44, 6-(1-{6-[(1-hydroxycyclobutyl)methoxy]-1,3-benzoxazol-2-yl}azetidin-3-yl)-3-[(1-methyl-1H-pyrazol-4-yl)amino]pyrazine-2-carboxamide]
8.52 | 8.05 | 6.21 | Cn1cc(Nc2ncc(C3CN(c4nc5ccc(CCC6(O)COC6)cc5o4)C3)nc2C(N)=O)cn1 [Example 45, 6-(1-{6-[2-(3-hydroxyoxetan-3-yl)ethyl]-1,3-benzoxazol-2-yl}azetidin-3-yl)-3-[(1-methyl-1H-pyrazol-4-yl)amino]pyrazine-2-carboxamide]
8.52 | 8.05 | 8.05 | Cn1cc(Nc2ncc(C3CN(c4nc5ccc(C(=O)N6CCOCC6)cc5o4)C3)nc2C(N)=O)cn1 [Example 46, 3-[(1-methyl-1H-pyrazol-4-yl)amino]-6-{1-[6-(morpholine-4-carbonyl)-1,3-benzoxazol-2-yl]azetidin-3-yl}pyrazine-2-carboxamide]
